In paper PMC8566451, “Lead optimization of novel quinolone chalcone compounds by a structure–activity relationship (SAR) study to increase efficacy and metabolic stability” (Scientific Reports, 2021):

How the values were obtained:
MDA-MB231-TaxR = experiment: Sulforhodamine B (SRB) assay; assay type: cell-based; details: Homo sapiens, MDA-MB231-TaxR paclitaxel-resistant breast cancer cells, 48 h
Description: We had initially determined that quinolone chalcones were promising anti-proliferative through a first round screening and identified CTR-17 and CTR-20 as favorable structures for anticancer activity. […] We carried out a comparative SAR study to determine if we could further optimize the quinolone chalcone to maximize efficacy. The Sulforhodamine B (SRB) assay was used to measure the anti-proliferative/cell killing activities of CTRs, for which several different cell lines were use: the cervical cancer HeLa, the breast cancer cell lines MDA-MB231, MDA-MB468, MDA-MB231TaxR (an induced paclitaxel-resistant sub-cell line of the MDA-MB231[9]) and MCF7. In addition, a subset was tested against the melanoma cell lines MZ-MEL-3.1, Mel-SOE, UKRV-Mel-38, UKRV-Mel-17 and MDA-MB-435 (Table 1, Supplemental Table S1).
(§1) The SRB assay was used to assess drug-induced cytotoxicity and cell proliferation as previously described[2],[33],[34] with a few modifications. Briefly, cells were plated 10,000 to 25,000 cells/cm^2 in 96-well plates (100 µl medium) and allowed to adhere overnight. The cell counts were different for each cell line to ensure optimal cell growth for the duration of the assay. Eight different concentrations of compound solutions using 2–4 times serial dilutions (100 µl). Cells were then incubated for an additional 48 h and then fixed with 100 µl ice-cold 10% (w/v) trichloroacetic acid (TCA) (without removing the cell medium, final concentration, 3.3% of TCA) and stained with 0.4% SRB (w/v) in 1% acetic acid (v/v). The relative growth rate (%) was calculated for each of the compound concentrations according to the following formula: 100 * (T − T0)/(C − T0), in which T is the optical density (OD) after exposure to a certain concentration of the compound after 48 h, T0 is the OD at the start of drug exposure (time zero) and C is the control growth. The GI50 for each compound was obtained from a non-linear sigmoidal dose–response (variable slope) curve fitted by GraphPad Prism v.4.03 software.

MDA-MB231 = experiment: Sulforhodamine B (SRB) assay; assay type: cell-based; details: Homo sapiens, MDA-MB-231; for GI50: MDA-MB231 breast cancer cells, 48 h, SRB; for IC50: Supplementary Table S1, SRB
Procedure: (§2) The human MDA-MB-231, MCF7, MDA-MB-468, RPMI-8226 and HeLa cell lines were purchased from ATCC and maintained in Dulbecco's Modified Eagle Medium (DMEM)—high glucose supplemented with 10% fetal bovine serum (FBS) and antibiotics/antimycotics. Cell line authentication was carried out by Genetica DNA Laboratories (Burlington, NC) using a short tandem repeat (STR) profiling method (March 2015; July 2015; September 2016). Melanoma cells E-055 (MZ-Mel-3), E-097 (Mel-SOE), E-112 (UKRV-Mel-38), E-157 (UKRV-Mel-17) were obtained from the European Searchable Tumour Line Database (ESTDAB) cell bank (a kind gift of Dr. Graham Pawelec, Tubingen University, Germany). MDA-MB-435 was purchased from the Division of Cancer Treatment and Diagnosis Tumor Repository. All melanoma cells were cultured in Roswell Park Memorial Institute (RPMI) medium supplemented with 10% FBS and P/S/antimycotics. Primary human epidermal melanocytes from normal adult abdominal skin were purchased from ATCC (cat # PCS-200–013) and Cell Applications (cat#104-05a). The melanocytes were cultured in the media supplied by the companies.
as §1

UKRV-Mel-38 = experiment: Sulforhodamine B (SRB) assay; assay type: cell-based; details: UKRV-Mel-38 melanoma cells, 48 h
Procedure: as §2, §1

MDA-MB468 = experiment: Sulforhodamine B (SRB) assay; assay type: cell-based; details: Homo sapiens, MDA-MB-468, MDA-MB468 breast cancer cells, 48 h
Procedure: as §2, §1

MCF7 = experiment: Sulforhodamine B (SRB) assay; assay type: cell-based; details: Homo sapiens; for GI50: MCF7 breast cancer cells, 48 h, SRB; for IC50: MCF7, Supplementary Table S1, SRB
Procedure: as §2, §1

MDA-MB435 = experiment: Sulforhodamine B (SRB) assay; assay type: cell-based; details: Homo sapiens, MDA-MB-435, MDA-MB435 cells, 48 h
Procedure: as §2, §1

HeLa = experiment: Sulforhodamine B (SRB) assay; assay type: cell-based; details: Homo sapiens; for GI50: HeLa cervical cancer cells, 48 h, SRB; for IC50: HeLa, Supplementary Table S1, SRB
Procedure: as §2, §1

Mel-SOE = experiment: Sulforhodamine B (SRB) assay; assay type: cell-based; details: Mel-SOE melanoma cells, 48 h
Procedure: as §2, §1

MZ-Mel-3 = experiment: Sulforhodamine B (SRB) assay; assay type: cell-based; details: MZ-Mel-3 melanoma cells, 48 h
Procedure: as §2, §1

UKRV-Mel-17 = experiment: Sulforhodamine B (SRB) assay; assay type: cell-based; details: UKRV-Mel-17 melanoma cells, 48 h
Procedure: as §2, §1

[1] = test system: cancer cell lines (breast cancer, melanoma, cervical cancer); experiment: SRB assay, average GI50 over cancer cell lines; assay type: cell-based; details: for GI50: average over the cell lines of Table 1 or Supplemental Table S1, read-out: average GI50
Procedure: as §1

HeLa cells = experiment: Cell cycle analysis by flow cytometry; assay type: cell-based, human; details: 3× GI50, 12 or 24 h, HeLa and UKRV-Mel-38 (Supplemental Fig. S11)
Procedure: Figure 5 CTR-21 arrests cells at G2/M, eventually leading to cell death by apoptosis. (a) Effects of CTR-21 on the cell cycle progression of HeLa and E112 cells. […] (b) Cell morphology of CTR-21 arrested cells. HeLa cells were treated with 30 nM of CTR-21 for 12 h, fixed with methanol and immunostained with α-tubulin or γ-tubulin, and counterstained with DAPI. Bar = […]. (c) CTR-21 promotes PARP cleavage. […] GAPDH was used as a loading control.
Cell cycle progression was determined using flow cytometry. UKRV-Mel-38 and HeLa cells were plated onto 10 cm plate at a density of 0.5 million and treated them with or without the compounds the following day for 12, 24 or 48 h. Cells were then harvested and centrifuged at 1000 rpm for 5 min, washed in PBS and then fixed with ice-cold ethanol (70%) for at least 24 h at − 20 °C. The cells were centrifuged, re-suspended in PBS solution, followed by centrifugation. The cell pellet was then stained with 100 μg/mL propidium iodide (PI) and 100 μg/mL RNase A in distilled water for at least 1 h. DNA content was measured using a Beckmann Coulter Cytomics FC500 (Beckman Coulter, Fullerton, CA), and the proportion of cell populations in G0/G1, S, and G2/M phases of cell cycle was calculated on the basis of DNA distribution histograms using CXP software (Beckman Coulter, Fullerton, CA).

RPMI-8226 = experiment: Sulforhodamine B (SRB) assay; assay type: cell-based; details: Homo sapiens, Supplementary Table S1, SRB
Procedure: as §2, §1

porcine tubulin = target: T1, porcine tubulin (Sus scrofa, UniProt P02550+P02554); experiment: In vitro tubulin polymerization assay; assay type: biochemical; details: 3 µM compound, 20 µM porcine tubulin, 37 °C, 60 min
T1 construct: purchased Cytoskeleton Inc., Denver, CO BK011P
T1 sequence (P02554 whole entry): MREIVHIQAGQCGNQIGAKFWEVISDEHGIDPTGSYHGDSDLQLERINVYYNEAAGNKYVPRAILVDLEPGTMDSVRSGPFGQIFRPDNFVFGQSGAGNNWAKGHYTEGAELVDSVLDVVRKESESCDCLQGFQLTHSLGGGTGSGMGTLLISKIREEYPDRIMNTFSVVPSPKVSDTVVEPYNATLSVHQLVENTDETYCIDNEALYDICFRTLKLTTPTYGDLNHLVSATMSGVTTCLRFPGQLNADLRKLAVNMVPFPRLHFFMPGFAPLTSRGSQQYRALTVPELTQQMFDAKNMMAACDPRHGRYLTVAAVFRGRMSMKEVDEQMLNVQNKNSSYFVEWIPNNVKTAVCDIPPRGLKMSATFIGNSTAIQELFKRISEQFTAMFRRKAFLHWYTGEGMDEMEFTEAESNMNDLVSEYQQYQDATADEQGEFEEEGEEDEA
T1 sequence (P02550 whole entry): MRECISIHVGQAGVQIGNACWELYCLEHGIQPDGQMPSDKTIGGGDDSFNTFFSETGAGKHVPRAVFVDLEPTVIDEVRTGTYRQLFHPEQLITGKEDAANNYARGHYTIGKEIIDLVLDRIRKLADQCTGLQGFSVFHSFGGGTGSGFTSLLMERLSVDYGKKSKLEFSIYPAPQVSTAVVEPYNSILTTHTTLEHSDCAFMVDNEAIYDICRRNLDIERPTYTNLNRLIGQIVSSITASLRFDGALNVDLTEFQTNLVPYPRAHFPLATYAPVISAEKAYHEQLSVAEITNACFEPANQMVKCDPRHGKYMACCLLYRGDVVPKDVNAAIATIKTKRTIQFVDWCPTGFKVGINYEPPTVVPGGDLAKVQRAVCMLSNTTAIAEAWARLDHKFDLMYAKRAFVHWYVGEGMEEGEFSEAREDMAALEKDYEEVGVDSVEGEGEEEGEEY
Procedure: Spontaneous polymerization of 20 µM porcine tubulin was initiated with the addition of 1 mmol/L GTP at 37 °C and monitored every minute for 60 min in the presence of the indicated concentration of CTR-21, CTR-32, nocodazole, paclitaxel, or a DMSO vehicle control. To make the graph simpler, only 3 µM concentration is shown. […] A modified Dixon plot was used to determine the inhibitory concentration of CTR-21 and CTR-32 (Ki).
Microtubule assembly was assessed using a Tubulin Polymerization assay kit (BK011P; Cytoskeleton Inc., Denver, CO). […] Polymerization was started by incubating at 37 °C and followed by absorbance readings every 1 min at 340 nm for 1 h using a Synergy H4 plate reader.

SMILES	GI50 (MDA-MB231-TaxR) [nM]	GI50 (MDA-MB231) [nM]	GI50 (UKRV-Mel-38) [nM]	GI50 (MDA-MB468) [nM]	GI50 (MCF7) [nM]	GI50 (MDA-MB435) [nM]	GI50 (HeLa) [nM]	GI50 (Mel-SOE) [nM]	GI50 (MZ-Mel-3) [nM]	GI50 (UKRV-Mel-17) [nM]	GI50 [1] [nM]	cell cycle effect (HeLa cells)	potency compared to CTR-17 [1]	IC50 (MDA-MB231) [nM]	IC50 (RPMI-8226) [nM]	IC50 (MCF7) [nM]	IC50 (HeLa) [nM]	effect on tubulin polymerization (porcine tubulin)
COc1ccccc1C(=O)/C=C/c1cc2ccccc2[nH]c1=O [CTR-17, (E)-3-(3-(2-methoxyphenyl)-3-oxoprop-1-enyl)quinolin-2(1H)-one]	1300 ± 83	657 ± 72	626 ± 154	320 ± 26	485 ± 97	290 ± 66	280 ± 78	786 ± 52	227 ± 30	504 ± 33	464							
COc1ccccc1C(=O)/C=C/c1cc2cc(C)ccc2[nH]c1=O [CTR-18, (E)-3-(3-(2-methoxyphenyl)-3-oxoprop-1-enyl)-6-methylquinolin-2(1H)-one]	1210 ± 179	530 ± 119	746 ± 177	304 ± 2	510 ± 38	307 ± 7	443 ± 112	817 ± 34	239 ± 13	596 ± 162	499							
COc1ccc2cc(/C=C/C(=O)c3ccccc3OC)c(=O)[nH]c2c1 [CTR-19, (E)-7-Methoxy-3-(3-(2-methoxyphenyl)-3-oxoprop-1-enyl) quinolin-2(1H)-one]	7090 ± 1060	6510 ± 1390	3770 ± 206	3540 ± 60	11900	4720 ± 2760	6820 ± 1390	10100	6830 ± 957	11200	7300	arrests cells in G2/M, albeit at a much higher concentration	lower toxicity potency					
COc1ccc2[nH]c(=O)c(/C=C/C(=O)c3ccccc3OC)cc2c1 [CTR-20, (E)-6-Methoxy-3-(3-(2-methoxyphenyl)-3-oxoprop-1-enyl) quinolin-2(1H)-one]	966 ± 163	216 ± 21	338 ± 33	408 ± 12	194 ± 21	90 ± 10	124 ± 36	338 ± 78	98 ± 21	283 ± 57	232							
COc1ccc2[nH]c(=O)c(/C=C/C(=O)c3ccc(F)cc3OC)cc2c1 [CTR-38, (E)-3-(3-(4-fluoro-2-methoxyphenyl)-3-oxoprop-1-enyl)-6-methoxyquinolin-2(1H)-one]											98			150 ± 10	40 ± 10	140 ± 20	60 ± 10	
CCOc1ccccc1C(=O)/C=C/c1cc2cc(OC)ccc2[nH]c1=O [CTR-40, (E)-3-(3-(2-ethoxyphenyl)-3-oxoprop-1-enyl)-6-methoxyquinolin-2(1H)-one]	54 ± 13	30 ± 4	42 ± 11	77 ± 13	41 ± 5	23	19 ± 1	53 ± 4	11	28 ± 5	36			130 ± 20	50 ± 20	90 ± 10	40	
COC(=O)Nc1nc2ccc(C(=O)c3cccs3)cc2[nH]1 [Noco, Nocodazole, reference compound]	47 ± 11	35 ± 4	34 ± 3	48 ± 7	33 ± 7	18 ± 2	25 ± 1	51 ± 11	23 ± 2	39 ± 1								reduced steady-state
CC(=O)O[C@H]1C(=O)[C@@]2(C)[C@H]([C@H](OC(=O)c3ccccc3)[C@]3(O)C[C@H](OC(=O)[C@H](O)[C@@H](NC(=O)c4ccccc4)c4ccccc4)C(C)=C1C3(C)C)[C@]1(OC(C)=O)CO[C@@H]1C[C@@H]2O [Tax, paclitaxel, reference compound]	131 ± 35	3 ± 1	6 ± 1	9 ± 3	6 ± 1	4 ± 1	8 ± 1	60 ± 16	58 ± 15	14 ± 4								shorter nucleation phase, steeper growth phase, and reaches steady state quicker
